{
  "source": "ChEMBL document CHEMBL3272309",
  "about": "“Potential central nervous system antitumor agents. Aziridinylbenzoquinones. 1” (J Med Chem, 1976)",
  "key": {"[1]": {"assay": "Antitumor activity against mouse ependymoblastoma cells allografted in mouse assessed as change in body weight at 0.25 mg/kg, ip qd administered from day 1 to 5 post intracerebral tumor-implantation measured on day 5 relative to control", "format": "functional", "details": "route intraperitoneal"}, "L1210 [2]": {"test_system": "L1210", "assay": "Antitumor activity against mouse L1210 cells allografted in mouse assessed as mouse survival at 6.25 mg/kg, ip qd administered from day 1 to 9 post intracerebral tumor-implantation relative to control", "format": "functional", "details": "route intraperitoneal"}, "L1210 [3]": {"test_system": "L1210", "assay": "Antitumor activity against mouse L1210 cells allografted in mouse assessed as change in body weight at 0.78 mg/kg, ip qd administered from day 1 to 9 post intracerebral tumor-implantation measured on day 5 relative to control", "format": "functional", "details": "route intraperitoneal"}, "[4]": {"assay": "Therapeutic ratio in ip dosed mouse allografted with mouse ependymoblastoma cells", "format": "ADME, organism-based", "details": "in vivo, read-out: TI"}, "[5]": {"assay": "Therapeutic ratio, ratio of highest active dose to lowest active for antitumor activity against in ip dosed mouse allografted with mouse L1210 cells", "format": "ADME, organism-based", "details": "in vivo, read-out: TI"}, "B16 [6]": {"test_system": "B16", "assay": "Antitumor activity against mouse B16 cells allografted in mouse assessed as change in body weight at 6.25 mg/kg, ip qd administered from day 1 to 9 post ip tumor-implantation measured on day 5 relative to control", "format": "functional", "details": "route intraperitoneal"}, "L1210 [7]": {"test_system": "L1210", "assay": "Antitumor activity against mouse L1210 cells allografted in mouse assessed as change in body weight at 6.25 mg/kg, ip qd administered from day 1 to 9 post intracerebral tumor-implantation measured on day 5 relative to control", "format": "functional", "details": "route intraperitoneal"}, "[8]": {"test_system": "Lewis lung carcinoma cell line", "assay": "Antitumor activity against mouse LLC cells allografted in mouse assessed as change in body weight at 1 mg/kg, ip qd administered from day 5 to 15 post sc tumor-implantation measured on day 5 relative to control", "format": "functional", "details": "route subcutaneous"}, "P388 [9]": {"test_system": "P388", "assay": "Antitumor activity against mouse P388 cells allografted in mouse assessed as change in body weight at 3.12 mg/kg, ip qd administered from day 1 to 9 post intracerebral tumor-implantation measured on day 5 relative to control", "format": "functional", "details": "route intraperitoneal"}, "[10]": {"assay": "Antitumor activity against mouse ependymoblastoma cells allografted in mouse assessed as change in body weight at 2 mg/kg, ip qd administered from day 1 to 5 post intracerebral tumor-implantation measured on day 5 relative to control", "format": "functional", "details": "route intraperitoneal"}, "B16 [11]": {"test_system": "B16", "assay": "Antitumor activity against mouse B16 cells allografted in mouse assessed as change in body weight at 3.12 mg/kg, ip qd administered from day 1 to 9 post ip tumor-implantation measured on day 5 relative to control", "format": "functional", "details": "route intraperitoneal"}, "P388 [12]": {"test_system": "P388", "assay": "Antitumor activity against mouse P388 cells allografted in mouse assessed as mouse survival at 3.12 mg/kg, ip qd administered from day 1 to 9 post intracerebral tumor-implantation relative to control", "format": "functional", "details": "route intraperitoneal"}, "Mus musculus [13]": {"test_system": "Mus musculus", "assay": "Toxicity in mouse allografted with mouse L1210 cells at 12.5 mg/kg, ip qd administered from day 1 to 9 post ip tumor-implantation", "format": "organism-based", "set-up": "dose 12.5 mg/kg, route intraperitoneal", "details": "in vivo"}, "L1210 [14]": {"test_system": "L1210", "assay": "Antitumor activity against mouse L1210 cells allografted in mouse assessed as mouse survival at 1.3 mg/kg, ip qd administered from day 1 to 9 post ip tumor-implantation relative to control", "format": "functional", "details": "route intraperitoneal"}, "L1210 [15]": {"test_system": "L1210", "assay": "Antitumor activity against mouse L1210 cells allografted in mouse assessed as mouse survival at 6.25 mg/kg, ip qd administered from day 1 to 9 post ip tumor-implantation relative to control", "format": "functional", "details": "route intraperitoneal"}, "L1210 [16]": {"test_system": "L1210", "assay": "Antitumor activity against mouse L1210 cells allografted in mouse assessed as mouse survival at 2 mg/kg, ip qd administered from day 1 to 9 post ip tumor-implantation relative to control", "format": "functional", "details": "route intraperitoneal"}, "P388 [17]": {"test_system": "P388", "assay": "Antitumor activity against mouse P388 cells allografted in mouse assessed as mouse survival at 1.56 mg/kg, ip qd administered from day 1 to 9 post ip tumor-implantation relative to control", "format": "functional", "details": "route intraperitoneal"}, "P388 [18]": {"test_system": "P388", "assay": "Antitumor activity against mouse P388 cells allografted in mouse assessed as mouse survival at 3.12 mg/kg, ip qd administered from day 1 to 9 post ip tumor-implantation relative to control", "format": "functional", "details": "route intraperitoneal"}, "P388 [19]": {"test_system": "P388", "assay": "Antitumor activity against mouse P388 cells allografted in mouse assessed as mouse survival at 0.78 mg/kg, ip qd administered from day 1 to 9 post intracerebral tumor-implantation relative to control", "format": "functional", "details": "route intraperitoneal"}, "P388 [20]": {"test_system": "P388", "assay": "Antitumor activity against mouse P388 cells allografted in mouse assessed as change in body weight at 6.25 mg/kg, ip qd administered from day 1 to 9 post intracerebral tumor-implantation measured on day 5 relative to control", "format": "functional", "details": "route intraperitoneal"}, "[21]": {"assay": "Antitumor activity against mouse ependymoblastoma cells allografted in mouse assessed as mouse survival at 0.5 mg/kg, ip qd administered from day 1 to 5 post intracerebral tumor-implantation relative to control", "format": "functional", "details": "route intraperitoneal"}, "B16 [22]": {"test_system": "B16", "assay": "Antitumor activity against mouse B16 cells allografted in mouse assessed as mouse survival at 3.12 mg/kg, ip qd administered from day 1 to 9 post ip tumor-implantation relative to control", "format": "functional", "details": "route intraperitoneal"}, "Mus musculus [23]": {"test_system": "Mus musculus", "assay": "Toxicity in mouse allografted with mouse P388 cells at 6.25 mg/kg, ip qd administered from day 1 to 9 post intracerebral tumor-implantation", "format": "organism-based", "set-up": "dose 6.25 mg/kg, route intraperitoneal", "details": "in vivo"}, "L1210 [24]": {"test_system": "L1210", "assay": "Antitumor activity against mouse L1210 cells allografted in mouse assessed as change in body weight at 4.6 mg/kg, ip qd administered from day 1 to 9 post ip tumor-implantation measured on day 5 relative to control", "format": "functional", "details": "route intraperitoneal"}, "L1210 [25]": {"test_system": "L1210", "assay": "Antitumor activity against mouse L1210 cells allografted in mouse assessed as mouse survival at 0.88 mg/kg, ip qd administered from day 1 to 9 post ip tumor-implantation relative to control", "format": "functional", "details": "route intraperitoneal"}, "B16 [26]": {"test_system": "B16", "assay": "Antitumor activity against mouse B16 cells allografted in mouse assessed as change in body weight at 1.56 mg/kg, ip qd administered from day 1 to 9 post ip tumor-implantation measured on day 5 relative to control", "format": "functional", "details": "route intraperitoneal"}, "L1210 [27]": {"test_system": "L1210", "assay": "Antitumor activity against mouse L1210 cells allografted in mouse assessed as mouse survival at 3.12 mg/kg, ip qd administered from day 1 to 9 post intracerebral tumor-implantation relative to control", "format": "functional", "details": "route intraperitoneal"}, "L1210 [28]": {"test_system": "L1210", "assay": "Antitumor activity against mouse L1210 cells allografted in mouse assessed as change in body weight at 3.12 mg/kg, ip qd administered from day 1 to 9 post intracerebral tumor-implantation measured on day 5 relative to control", "format": "functional", "details": "route intraperitoneal"}, "[29]": {"assay": "Antitumor activity against mouse ependymoblastoma cells allografted in mouse assessed as change in body weight at 8 mg/kg, ip qd administered from day 1 to 5 post intracerebral tumor-implantation measured on day 5 relative to control", "format": "functional", "details": "route intraperitoneal"}, "P388 [30]": {"test_system": "P388", "assay": "Antitumor activity against mouse P388 cells allografted in mouse assessed as mouse survival at 0.39 mg/kg, ip qd administered from day 1 to 9 post intracerebral tumor-implantation relative to control", "format": "functional", "details": "route intraperitoneal"}, "L1210 [31]": {"test_system": "L1210", "assay": "Antitumor activity against mouse L1210 cells allografted in mouse assessed as change in body weight at 3.12 mg/kg, ip qd administered from day 1 to 9 post ip tumor-implantation measured on day 5 relative to control", "format": "functional", "details": "route intraperitoneal"}, "[32]": {"assay": "Antitumor activity against mouse ependymoblastoma cells allografted in mouse assessed as change in body weight at 1 mg/kg, ip qd administered from day 1 to 5 post intracerebral tumor-implantation measured on day 5 relative to control", "format": "functional", "details": "route intraperitoneal"}, "P388 [33]": {"test_system": "P388", "assay": "Antitumor activity against mouse P388 cells allografted in mouse assessed as change in body weight at 0.78 mg/kg, ip qd administered from day 1 to 9 post ip tumor-implantation measured on day 5 relative to control", "format": "functional", "details": "route intraperitoneal"}},
  "data": [
    {"smiles": "CCOC(=O)NC1=C(N2CC2)C(=O)C(NC(=O)OCC)=C(N2CC2)C1=O", "note": "[DIAZIQUONE]", "values": [
      {"measurement": "Activity", "setting": "[1]", "result": -1.5, "unit": "g"},
      {"measurement": "T/C", "setting": "L1210 [2]", "result": 103, "unit": "%"},
      {"measurement": "Activity", "setting": "L1210 [3]", "result": -0.5, "unit": "g"},
      {"measurement": "selectivity ratio", "setting": "[4]", "result": 4},
      {"measurement": "selectivity ratio", "setting": "[5]", "result": 4},
      {"measurement": "Activity", "setting": "B16 [6]", "result": -4.4, "unit": "g"},
      {"measurement": "Activity", "setting": "L1210 [7]", "result": -2.8, "unit": "g"},
      {"measurement": "Activity", "setting": "[8]", "result": -0.1, "unit": "g"},
      {"measurement": "Activity", "setting": "P388 [9]", "result": -2.1, "unit": "g"},
      {"measurement": "Activity", "setting": "[10]", "result": -2.7, "unit": "g"},
      {"measurement": "Activity", "setting": "B16 [11]", "result": -2.7, "unit": "g"},
      {"measurement": "T/C", "setting": "P388 [12]", "result": 131, "unit": "%"},
      {"measurement": "Activity", "setting": "Mus musculus [13]", "result": "Toxic"},
      {"measurement": "T/C", "setting": "L1210 [14]", "result": 160, "unit": "%"},
      {"measurement": "T/C", "setting": "L1210 [15]", "result": 127, "unit": "%"},
      {"measurement": "T/C", "setting": "L1210 [16]", "result": 201, "unit": "%"},
      {"measurement": "T/C", "setting": "P388 [17]", "result": 212, "unit": "%"},
      {"measurement": "T/C", "setting": "P388 [18]", "result": 100, "unit": "%"},
      {"measurement": "T/C", "setting": "P388 [19]", "result": 125, "unit": "%"},
      {"measurement": "Activity", "setting": "P388 [20]", "result": -2.8, "unit": "g"},
      {"measurement": "T/C", "setting": "[21]", "result": 162, "unit": "%"},
      {"measurement": "T/C", "setting": "B16 [22]", "result": 143, "unit": "%"},
      {"measurement": "Activity", "setting": "Mus musculus [23]", "result": "Toxic"},
      {"measurement": "Activity", "setting": "L1210 [24]", "result": -4.6, "unit": "g"},
      {"measurement": "T/C", "setting": "L1210 [25]", "result": 132, "unit": "%"},
      {"measurement": "Activity", "setting": "B16 [26]", "result": -3.6, "unit": "g"},
      {"measurement": "T/C", "setting": "L1210 [27]", "result": 179, "unit": "%"},
      {"measurement": "Activity", "setting": "L1210 [28]", "result": -2.1, "unit": "g"},
      {"measurement": "Activity", "setting": "[29]", "result": -5, "unit": "g"},
      {"measurement": "T/C", "setting": "P388 [30]", "result": 102, "unit": "%"},
      {"measurement": "Activity", "setting": "L1210 [31]", "result": -4.1, "unit": "g"},
      {"measurement": "Activity", "setting": "[32]", "result": -2.1, "unit": "g"},
      {"measurement": "Activity", "setting": "P388 [33]", "result": -2.4, "unit": "g"}
    ]}
  ]
}
